This is an account of results in patent US10328080B2, “Therapeutic combination of PI3K inhibitor and a BTK inhibitor” (Acerta Pharma B.V., priority 2013, dated 2019).

Molecules are shown by their SMILES.

Experiment [1] deals with KPC derived mouse pancreatic cancer cells. Kind of experiment: KPC derived mouse pancreatic cancer model, tumor infiltrating MDSCs and TAMs. The conditions noted are these: 15 mg/kg/BID given orally. Format: in vivo. As to the method:
In this study, KPC derived mouse pancreatic cancer cells (KrasG12D;Trp53R^872H;Pdx1-Cre) were injected into the pancreases.
Single cell suspensions from tumor samples. Mouse tumor tissue was collected and stored in PBS/0.1% soybean trypsin inhibitor prior to enzymatic dissociation. Samples were finely minced with a scissors and mouse tissue was transferred into DMEM containing 1.0 mg/ml collagenase IV (Gibco), 0.1% soybean trypsin inhibitor, and 50 U/ml DNase (Roche) and incubated at 37 C for 30 min. with constant stirring while human tissue was digested in 2.0 mg/ml collagenase IV, 1.0 mg/ml hyluronidase, 0.1% soybean trypsin inhibitor, and 50 U/ml DNase for 45 minutes. Suspensions were filtered through a 100 micron filter and washed with FACS buffer (PBS/0.5% BSA/2.0 mM EDTA) prior to staining. Two million total cells were stained with antibodies as indicated. Intracellular detection of FoxP3 was achieved following permeabilization with BD Perm Buffer III (BD Biosciences) and eBioscience Fix/Perm respectively. Following surface staining, samples were acquired on a BD Fortessa and analyzed using FlowJo (Treestar) software.

The test system of experiment [2] is pancreatic tumor-bearing mice. Kind of experiment: Orthotopic pancreatic cancer model (KPC cells in C57BL/6 mice). Format: in vivo. The conditions noted are these: aggressive orthotopic PDA model, 15 mg/kg oral of each drug. As to the method: Cell line derived from KrasG12D;Trp53R^872H;Pdx1-Cre (KPC) mice were orthotopically implanted into the head of the pancreas after 35 passages. Based on the mice background from where the cell lines were generated, 1×10^6 cells were injected in C57BL/6 mice. Throughout the experiment, animals were provided with food and water ad libitum and subjected to a 12-h dark/light cycle. Animal studies were performed in accordance with the U.S. Public Health Service “Guidelines for the Care and Use of Laboratory Animals” (IACUC). After euthanization, pancreatic tumors were dissected out, weighed and single cell suspensions were prepared for flow cytometry analysis.

For the next experiment, the system named is human platelets, GPVI. The experiment in a line: GPVI platelet aggregation (Convulxin-induced). Format: cell-based. The following applies: CVX-induced, FIG. 56 and FIG. 57. As to the method:
GPVI platelet aggregation was measured for Formula (XVIII) and Formula XX-A (ibrutinib). Blood was obtained from untreated humans, and platelets were purified from […] by centrifugation. Cells were resuspended to a final concentration of […] in buffer containing 145 mmol/L NaCl, 10 mmol/L HEPES, 0.5 mmol/L Na2HPO4, 5 mmol/L KCl, 2 mmol/L MgCl2, 1 mmol/L CaCl2, and 0.1% glucose, at pH 7.4. Stock solutions of […] were prepared on the day of experimentation and added to platelet suspensions 5 minutes (37° C., 1200 rpm) before the induction of aggregation. Aggregation was assessed with a Chronolog Lumi-Aggregometer (model 540 VS; Chronolog, Havertown, Pa.) and permitted to proceed for 6 minutes after the addition of agonist. The results are reported as maximum percent change in light transmittance from baseline with platelet buffer used as a reference.
In FIG. 57, the results of CVX-induced (250 ng/mL) human platelet aggregation results before and 15 min after administration of the BTK inhibitors to 6 healthy individuals are shown.

The test system of a further experiment is canine B cell lymphoma. Kind of experiment: Veterinary clinical trial in companion dogs with lymphoma. The following applies: Arm 1 monotherapy, Arm 2 combination. The experiment is classed as in vivo. As to the method:
Enrollment has completed for Arm 1 and is ongoing for Arm 2.
Intra-subject dose escalation was allowed. Six of the 11 dogs that initiated at 2.5 or 5 mg/kg once daily were escalated and completed the study with dosages of 10 mg/kg twice daily. Among all the dose cohorts, 8 dogs had shrinkage of target lesions >20%; the best tumor responses were between 45-49% reduction in the sum of target lesions in two dogs.

A further experiment has as its system ID8 ovarian cancer. Kind of experiment: ID8 syngeneic orthotropic ovarian cancer murine model. The conditions noted are these: 15 mg/kg/BID given orally. The experiment is classed as in vivo, mice. The source says: Human ovarian cancer models, including the ID8 syngeneic orthotropic ovarian cancer model and other animal models, are described in Fong and Kakar, J. Ovarian Res. 2009, 2, 12; Greenaway et al., Gynecol. Oncol. 2008, 108, 385-94; Urzua et al., Tumour Biol. 2005, 26, 236-44; Janat-Amsbury et al., Anticancer Res. 2006, 26, 3223-28; Janat-Amsbury et al., Anticancer Res. 2006, 26, 2785-89. […] The results of the study are shown in FIG. 42, FIG. 43, FIG. 44, FIG. 45, FIG. 46, FIG. 47, FIG. 48, and FIG. 49.

Experiment [3] concerns human platelet-mediated thrombosis. Kind of experiment: In vivo human thrombus formation in the VWF HA1 mice model (laser injury). The following applies: human platelets preincubated with BTK inhibitor (0.1, 0.5 or 1 μM) 30 min; laser-induced injury in VWF HA1 mice.
Protocol: Purified human platelets were preincubated with various concentrations of the BTK inhibitors (0.1 μM, 0.5 μM, or 1 μM) or DMSO and then administered to VWF HA1 mice, followed by laser-induced thrombus formation.
The objective of this study was to evaluate in vivo thrombus formation in the presence of BTK inhibitors.

Take `CC#CC(=O)N1CCC[C@H]1c1nc(-c2ccc(C(=O)Nc3ccccn3)cc2)c2c(N)nccn12` [Formula (XVIII), (S)-4-(8-amino-3-(1-(but-2-ynoyl)pyrrolidin-2-yl)imidazo[1,5-a]pyrazin-1-yl)-N-(pyridin-2-yl)benzamide]: the Tumor burden entry in experiment [1] is listed as “reduction”. In addition, the Tumor burden result in experiment [2] is recorded as “significantly reduced”. In experiment [2] (flow cytometry), the Immature myeloid infiltrate entry was “decreased”, the “Number of immunosuppressive Tregs” value is “reduced” and the “Number of tumor associated macrophages” value is given as “reduced”. In addition, the “Inhibition of GPVI platelet aggregation” value in the experiment with human platelets, GPVI is listed as “does not”. Also, in the experiment with canine B cell lymphoma, the “Complete responses (CR)” value is on record as “not observed”. In addition, the “Median time on study (all subjects)” value with canine B cell lymphoma (preliminary) was 24 days. Also, in the experiment with ID8 ovarian cancer (tumor-bearing mice), the “CD8+ T cells” value is recorded as “increase”, the “Immunosuppressive tumor associated Tregs” value is listed as “significant reduction” and the Immunosuppressive tumor-associated lymphocytes entry is given as “significant reduction”. The “Immunosuppressive B cells” value in the experiment on ID8 ovarian cancer (tumor-bearing mice, total B cells and Bregs) is reported as “significant reduction”. Besides, in the experiment with ID8 ovarian cancer (vs vehicle), the “ID8 ovarian cancer growth” value was “impairs”.
As for `C=CC(=O)N1CCC[C@@H](n2nc(-c3ccc(Oc4ccccc4)cc3)c3c(N)ncnc32)C1` [Formula XX-A, 1-[(3R)-3-[4-amino-3-(4-phenoxyphenyl)-1H-pyrazolo[3,4-d]pyrimidin-1-yl]piperidin-1-yl]prop-2-en-1-one, reference compound], the “Inhibition of GPVI platelet aggregation” value with human platelets, GPVI is “significantly inhibits”. In experiment [3], the “Effect on human platelet-mediated thrombus formation” value was “able to limit this process”.
As for `C=CC(=O)Nc1cccc(Nc2nc(Nc3ccc(OCCOC)cc3)ncc2F)c1` [Formula XXVII, N-(3-((5-fluoro-2-((4-(2-methoxyethoxy)phenyl)amino)pyrimidin-4-yl)amino)phenyl)acrylamide], in experiment [3], the “Effect on human platelet-mediated thrombus formation” value is “effect similar to Formula XX-A (ibrutinib)”.
